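Briefly, cells in 96-well plates were exposed to five compound concentrations for 48 h, and endpoints were estimated by linear interpolation. At the GI50, growth is halved.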 Activity calls are given as the source filed them. Rule as the data show it: active = GI50 up to about 1.1 µM and inactive = higher.
Tests used:
Assay in all cases: inhibition of tumour cell growth, NCI panel, 48 h
A498 = tested on: A498
ACHN = tested on: ACHN
CAKI-1 = tested on: CAKI-1
CCRF-CEM = tested on: CCRF-CEM
COLO 205 = tested on: COLO 205
DMS-273 = tested on: DMS-273
HT-29 = tested on: HT-29
K562 = tested on: K562
M14 = tested on: M14
NCI-H23 = tested on: NCI-H23
NCI-H522 = tested on: NCI-H522
OVCAR-3 = tested on: OVCAR-3
SF-268 = tested on: SF-268
SK-MEL-28 = tested on: SK-MEL-28
SNB-75 = tested on: SNB-75
U-251 = tested on: U-251
MDA-MB-231 = tested on: MDA-MB-231
MDA-N = tested on: MDA-N
NCI/ADR-RES = tested on: NCI/ADR-RES
SR = tested on: SR

Row | Compound | GI50 (A498) | GI50 (ACHN) | GI50 (CAKI-1) | GI50 (CCRF-CEM) | GI50 (COLO 205) | GI50 (DMS-273) | GI50 (HT-29) | GI50 (K562) | GI50 (M14) | GI50 (NCI-H23) | GI50 (NCI-H522) | GI50 (OVCAR-3) | GI50 (SF-268) | GI50 (SK-MEL-28) | GI50 (SNB-75) | GI50 (U-251) | GI50 (MDA-MB-231) | GI50 (MDA-N) | GI50 (NCI/ADR-RES) | GI50 (SR)
1 | CCOc1ccc(NC(=O)CC2SC(Nc3ccc(Cl)cc3)=NC2=O)cc1 (stereo unspecified) | 44.8 µM (inactive) | > 100 µM (inactive) | 21.5 µM (inactive) | 18.3 µM (inactive) | > 100 µM (inactive) | > 100 µM (inactive) | > 100 µM (inactive) | 23.9 µM (inactive) | > 100 µM (inactive) | > 100 µM (inactive) | > 10 µM (inactive) | > 100 µM (inactive) | > 100 µM (inactive) | > 100 µM (inactive) | 29.8 µM (inactive) | – | – | – | – | –
2 | Oc1ccc2c(c1)CC[N+]1=C2CCC2CCCC21 (stereo unspecified) [QUINDONIUM BROMIDE] | – | > 100 µM (inactive) | > 100 µM (inactive) | – | > 100 µM (inactive) | > 100 µM (inactive) | > 100 µM (inactive) | – | > 100 µM (inactive) | > 100 µM (inactive) | – | > 100 µM (inactive) | > 100 µM (inactive) | > 100 µM (inactive) | > 100 µM (inactive) | – | – | – | – | –
3 | O=c1ccc2ccc(O)c3c4c(O)ccc5ccc(=O)c(c1c23)c54 | – | 2.69 µM (inactive) | – | 0.71 µM (active) | 1.91 µM (inactive) | 1.95 µM (inactive) | 4.27 µM (inactive) | 2.07 µM (inactive) | 1.6 µM (inactive) | 1.66 µM (inactive) | 1.45 µM (inactive) | 0.964 µM (active) | – | 1.14 µM (inactive) | – | 1.29 µM (inactive) | – | – | – | –
4 | O=C(N/C(=C\c1ccc(Br)cc1)c1nc2ccccc2s1)c1ccccc1 | 90.8 µM (inactive) | 76.9 µM (inactive) | > 100 µM (inactive) | 21.5 µM (inactive) | > 100 µM (inactive) | 91.6 µM (inactive) | 69.2 µM (inactive) | 51.4 µM (inactive) | > 100 µM (inactive) | 25.5 µM (inactive) | 32 µM (inactive) | > 100 µM (inactive) | 36.2 µM (inactive) | > 100 µM (inactive) | > 100 µM (inactive) | 56 µM (inactive) | – | – | – | –
5 | O=c1/c(=C/c2ccc3c(c2)OCO3)sc2nnc(Cc3ccccc3)n12 | > 100 µM (inactive) | > 100 µM (inactive) | > 100 µM (inactive) | 81.5 µM (inactive) | > 100 µM (inactive) | > 100 µM (inactive) | – | > 100 µM (inactive) | > 100 µM (inactive) | > 100 µM (inactive) | 92.3 µM (inactive) | > 100 µM (inactive) | > 100 µM (inactive) | > 100 µM (inactive) | 61.1 µM (inactive) | > 100 µM (inactive) | – | – | – | –
6 | COC(=O)[C@H]1CC(=O)C=C2CCCC21 (stereo partly specified) | > 100 µM (inactive) | – | > 100 µM (inactive) | > 100 µM (inactive) | > 100 µM (inactive) | > 100 µM (inactive) | > 100 µM (inactive) | > 100 µM (inactive) | > 100 µM (inactive) | > 100 µM (inactive) | > 100 µM (inactive) | > 100 µM (inactive) | > 100 µM (inactive) | > 100 µM (inactive) | > 100 µM (inactive) | > 100 µM (inactive) | – | – | – | –
7 | COc1cc(O)c(C(=O)/C=C/c2ccc(O)cc2)cc1Oc1ccc(/C=C/C(=O)c2ccc(O)cc2O)cc1 [RHUSCHALCONE III] | 6.93 µM (inactive) | 8.75 µM (inactive) | 14.2 µM (inactive) | 7.29 µM (inactive) | 8.43 µM (inactive) | – | 7.57 µM (inactive) | 9.75 µM (inactive) | 9.62 µM (inactive) | 11.1 µM (inactive) | 7.41 µM (inactive) | 8.07 µM (inactive) | 8.81 µM (inactive) | 8.41 µM (inactive) | 12.6 µM (inactive) | 7.98 µM (inactive) | 15 µM (inactive) | 8.93 µM (inactive) | 10.1 µM (inactive) | 5.01 µM (inactive)
8 | Nc1nc(Cl)cc(Oc2ccc(Cl)cc2)n1 | > 47.5 µM (inactive) | 31.4 µM (inactive) | 44.6 µM (inactive) | > 77.6 µM (inactive) | > 60.5 µM (inactive) | – | > 100 µM (inactive) | > 55.8 µM (inactive) | > 57 µM (inactive) | 29.5 µM (inactive) | 22.6 µM (inactive) | > 56.4 µM (inactive) | > 54.8 µM (inactive) | > 57.3 µM (inactive) | > 100 µM (inactive) | > 56.2 µM (inactive) | > 56.1 µM (inactive) | > 61 µM (inactive) | > 70.3 µM (inactive) | > 80.4 µM (inactive)
9 | O=C(/C=C/c1cccc(Br)c1)c1ccc(Cl)cc1 | 13.3 µM (inactive) | 16.8 µM (inactive) | 14 µM (inactive) | 4.5 µM (inactive) | 17.2 µM (inactive) | – | 11.2 µM (inactive) | 6.58 µM (inactive) | 14.6 µM (inactive) | 17 µM (inactive) | 13.6 µM (inactive) | 16.7 µM (inactive) | 17.5 µM (inactive) | 15.1 µM (inactive) | 13.6 µM (inactive) | 5.98 µM (inactive) | 18 µM (inactive) | 6.32 µM (inactive) | 21.7 µM (inactive) | 2.42 µM (inactive)
10 | COC1=CC(=O)c2c(cc(COP(N)(=O)N(CCCl)CCCl)n2C)C1=O (stereo unspecified) | 2.2 µM (inactive) | < 0.0183 µM (active) | < 0.0158 µM (active) | < 0.0256 µM (active) | 1.39 µM (inactive) | – | 0.186 µM (active) | 1.52 µM (inactive) | 0.826 µM (active) | 0.7 µM (active) | 0.0746 µM (active) | 0.342 µM (active) | < 0.032 µM (active) | 2.9 µM (inactive) | 0.955 µM (active) | 0.0822 µM (active) | 2.33 µM (inactive) | 1.61 µM (inactive) | 3.29 µM (inactive) | 0.0603 µM (active)
11 | CCCCCNC1=CC(=O)c2ccccc2C1=O | 32.1 µM (inactive) | 58.9 µM (inactive) | 33.7 µM (inactive) | > 100 µM (inactive) | 79.6 µM (inactive) | – | 69.2 µM (inactive) | > 100 µM (inactive) | > 62.4 µM (inactive) | 24.3 µM (inactive) | 19.7 µM (inactive) | 22.5 µM (inactive) | 25.1 µM (inactive) | > 100 µM (inactive) | 22.2 µM (inactive) | 17.5 µM (inactive) | 19.4 µM (inactive) | > 100 µM (inactive) | 45.3 µM (inactive) | 46.6 µM (inactive)
12 | NC(=O)[C@H](Cc1ccc(O)cc1)NC1=C(Cl)C(=O)c2c(O)ccc(O)c2C1=O | 4.4 µM (inactive) | 2.67 µM (inactive) | 2.37 µM (inactive) | 0.241 µM (active) | 1.5 µM (inactive) | – | 2.38 µM (inactive) | 1.45 µM (inactive) | 3.14 µM (inactive) | 3.26 µM (inactive) | 1.63 µM (inactive) | 2.14 µM (inactive) | 3.7 µM (inactive) | 2.21 µM (inactive) | 4.93 µM (inactive) | 2.97 µM (inactive) | 2.51 µM (inactive) | 1.93 µM (inactive) | 2.8 µM (inactive) | 1.34 µM (inactive)
13 | C1=NN(Cc2ccccc2)C(N(Cc2ccccc2)Cc2ccccc2)N1 (stereo unspecified) | 17.7 µM (inactive) | 19.7 µM (inactive) | 14.4 µM (inactive) | 12.2 µM (inactive) | 16.9 µM (inactive) | 15.1 µM (inactive) | 15.2 µM (inactive) | 8.91 µM (inactive) | 11 µM (inactive) | 16.9 µM (inactive) | 15.7 µM (inactive) | 14 µM (inactive) | 21.3 µM (inactive) | 19 µM (inactive) | 23.1 µM (inactive) | 16.7 µM (inactive) | – | – | – | –
14 | CCCCCCCCCCCCC(SCCNC(=O)CCNC(=O)C(O)C(C)(C)COP(=O)(O)OP(=O)(O)OCC1OC(n2cnc3c(N)ncnc32)C(O)C1OP(=O)(O)O)C(=O)NCC(N)=O (stereo unspecified) | > 100 µM (inactive) | 56.6 µM (inactive) | – | > 100 µM (inactive) | 49.2 µM (inactive) | 41.3 µM (inactive) | > 100 µM (inactive) | – | > 100 µM (inactive) | > 100 µM (inactive) | 69.2 µM (inactive) | > 100 µM (inactive) | > 100 µM (inactive) | > 100 µM (inactive) | 2.6 µM (inactive) | 34.9 µM (inactive) | – | – | – | –
15 | BC(=O)NC(CC(C)C)C(=O)NCC(=O)NC1c2ccsc2C(=O)C1O.CN(C)C (stereo unspecified) | > 100 µM (inactive) | > 100 µM (inactive) | > 100 µM (inactive) | 31.6 µM (inactive) | > 100 µM (inactive) | – | > 100 µM (inactive) | 31.6 µM (inactive) | > 100 µM (inactive) | > 100 µM (inactive) | > 100 µM (inactive) | > 100 µM (inactive) | > 100 µM (inactive) | > 100 µM (inactive) | > 100 µM (inactive) | > 100 µM (inactive) | > 100 µM (inactive) | > 100 µM (inactive) | > 100 µM (inactive) | > 100 µM (inactive)
16 | Cn1c(=O)nc2n(CCO)c(-c3ccccc3)c(-c3ccccc3)nc-2c1=O | > 100 µM (inactive) | > 100 µM (inactive) | > 100 µM (inactive) | > 100 µM (inactive) | > 100 µM (inactive) | – | > 100 µM (inactive) | > 100 µM (inactive) | > 100 µM (inactive) | > 100 µM (inactive) | > 100 µM (inactive) | > 100 µM (inactive) | > 100 µM (inactive) | > 100 µM (inactive) | > 100 µM (inactive) | > 100 µM (inactive) | > 100 µM (inactive) | > 100 µM (inactive) | > 100 µM (inactive) | > 100 µM (inactive)

Source: ChEMBL document CHEMBL1201862, “PubChem BioAssay data set” (2004)
